Assay results published in patent US20040063662A1, “Selenophene anti-tumor agents” (priority 1996, published 2004).

What was measured:
MCF7/ADR-RES = assay: NCI human tumor cell panel: MCF7/ADR-RES (Breast Cancer); format: cell-based; conditions: Breast Cancer
TK-10 = assay: NCI human tumor cell panel: TK-10 (Renal Cancer); format: cell-based; conditions: TK-10, Renal Cancer
NCI-H23 = assay: NCI human tumor cell panel: NCI-H23 (Non-Small Cell Lung Cancer); format: cell-based; conditions: NCI-H23, Non-Small Cell Lung Cancer
NCI-H322M = assay: cells; format: cell-based; conditions: Homo sapiens, Non-Small Cell Lung Cancer
UO-31 = assay: NCI human tumor cell panel: UO-31 (Renal Cancer); format: cell-based; conditions: UO-31, Renal Cancer
MDA-N = assay: NCI human tumor cell panel: MDA-N (Breast Cancer); format: cell-based; conditions: Breast Cancer
EKVX = assay: NCI human tumor cell panel: EKVX (Non-Small Cell Lung Cancer); format: cell-based; conditions: Non-Small Cell Lung Cancer
HCT-116 = assay: NCI human tumor cell panel: HCT-116 (Colon Cancer); format: cell-based; conditions: HCT-116, Colon Cancer
OVCAR-3 = assay: NCI human tumor cell panel: OVCAR-3 (Ovarian Cancer); format: cell-based; conditions: OVCAR-3, Ovarian Cancer
SF-539 = assay: NCI human tumor cell panel: SF-539 (CNS Cancer); format: cell-based; conditions: SF-539, CNS Cancer
RPMI-8226 = assay: NCI human tumor cell panel: RPMI-8226 (Leukemia); format: cell-based; conditions: RPMI-8226, Leukemia
SK-MEL-2 = assay: NCI human tumor cell panel: SK-MEL-2 (Melanoma); format: cell-based; conditions: SK-MEL-2, Melanoma
SK-MEL-28 = assay: NCI human tumor cell panel: SK-MEL-28 (Melanoma); format: cell-based; conditions: SK-MEL-28, Melanoma
SF-295 = assay: NCI human tumor cell panel: SF-295 (CNS Cancer); format: cell-based; conditions: SF-295, CNS Cancer
SNB-75 = assay: NCI human tumor cell panel: SNB-75 (CNS Cancer); format: cell-based; conditions: SNB-75, CNS Cancer
OVCAR-8 = assay: NCI human tumor cell panel: OVCAR-8 (Ovarian Cancer); format: cell-based; conditions: OVCAR-8, Ovarian Cancer
NCI-H460 = assay: NCI human tumor cell panel: NCI-H460 (Non-Small Cell Lung Cancer); format: cell-based; conditions: NCI-H460, Non-Small Cell Lung Cancer
LOX IMVI = assay: NCI human tumor cell panel: LOX IMVI (Melanoma); format: cell-based; conditions: Melanoma
NCI-H522 = assay: NCI human tumor cell panel: NCI-H522 (Non-Small Cell Lung Cancer)
SK-MEL-5 = assay: NCI human tumor cell panel: SK-MEL-5 (Melanoma); format: cell-based; conditions: SK-MEL-5, Melanoma
SW-620 = assay: NCI human tumor cell panel: SW-620 (Colon Cancer); format: cell-based; conditions: SW-620, Colon Cancer
A498 = assay: NCI human tumor cell panel: A498 (Renal Cancer); format: cell-based; conditions: A498, Renal Cancer
A549/ATCC = assay: NCI human tumor cell panel: A549/ATCC (Non-Small Cell Lung Cancer); format: cell-based; conditions: Non-Small Cell Lung Cancer
MDA-MB-435 = assay: NCI human tumor cell panel: MDA-MB-435 (Breast Cancer); format: cell-based; conditions: MDA-MB-435, Breast Cancer
IGROV1 = assay: NCI human tumor cell panel: IGROV1 (Ovarian Cancer); format: cell-based; conditions: IGROV-1, IGROV1, Ovarian Cancer
HT29 = assay: NCI human tumor cell panel: HT29 (Colon Cancer); format: cell-based; conditions: HT-29, HT29, Colon Cancer
MOLT-4 = assay: NCI human tumor cell panel: MOLT-4 (Leukemia); format: cell-based; conditions: MOLT-4, Leukemia
M14 = assay: NCI human tumor cell panel: M14 (Melanoma); format: cell-based; conditions: M14, Melanoma
BT-549 = assay: NCI human tumor cell panel: BT-549 (Breast Cancer); format: cell-based; conditions: BT-549, Breast Cancer
ACHN = assay: NCI human tumor cell panel: ACHN (Renal Cancer); format: cell-based; conditions: Renal Cancer
U251 = assay: NCI human tumor cell panel: U251 (CNS Cancer); format: cell-based; conditions: U-251, U251, CNS Cancer
786-0 = assay: NCI human tumor cell panel: 786-0 (Renal Cancer); format: cell-based; conditions: 786-0, Renal Cancer
[1] = read-out: Log10 GI50 (converted)
[2] = read-out: Log10 TGI (converted)

## OCc1ccc(-c2ccc(-c3cccs3)[se]2)s1 [NSC 675344]
MCF7/ADR-RES; [1]
  GI50: > 100 µM
MCF7/ADR-RES; [2]
  IC (TGI): > 100 µM
TK-10; [1]
  GI50: < 0.01 µM
TK-10; [2]
  IC (TGI): 0.0501 µM
NCI-H23; [1]
  GI50: 20.4 µM
NCI-H23; [2]
  IC (TGI): > 100 µM
NCI-H322M; [1]
  GI50: 20.9 µM
NCI-H322M; [2]
  IC (TGI): > 100 µM
UO-31; [1]
  GI50: > 100 µM
UO-31; [2]
  IC (TGI): > 100 µM
MDA-N; [1]
  GI50: > 100 µM
MDA-N; [2]
  IC (TGI): > 100 µM
EKVX; [1]
  GI50: > 100 µM
EKVX; [2]
  IC (TGI): > 100 µM
HCT-116; [1]
  GI50: < 0.01 µM
HCT-116; [2]
  IC (TGI): 0.0417 µM
OVCAR-3; [1]
  GI50: < 0.01 µM
OVCAR-3; [2]
  IC (TGI): > 100 µM
SF-539; [1]
  GI50: > 100 µM
SF-539; [2]
  IC (TGI): > 100 µM
RPMI-8226; [1]
  GI50: > 100 µM
RPMI-8226; read-out: Log10 TGI
  IC (TGI): > 100 µM
SK-MEL-2; [1]
  GI50: > 100 µM
SK-MEL-2; [2]
  IC (TGI): > 100 µM
SK-MEL-28; [1]
  GI50: > 100 µM
SK-MEL-28; [2]
  IC (TGI): > 100 µM
SF-295; [1]
  GI50: 26.9 µM
SF-295; [2]
  IC (TGI): > 100 µM
SNB-75; [1]
  GI50: 16.6 µM
SNB-75; [2]
  IC (TGI): 49 µM
OVCAR-8; [1]
  GI50: > 100 µM
OVCAR-8; [2]
  IC (TGI): > 100 µM
NCI-H460; [1]
  GI50: < 0.01 µM
NCI-H460; [2]
  IC (TGI): > 100 µM
LOX IMVI; [1]
  GI50: 34.7 µM
LOX IMVI; [2]
  IC (TGI): > 100 µM
NCI-H522; NCI-H522, read-out: Log10 GI50 (converted)
  GI50: > 100 µM
NCI-H522; NCI-H522, read-out: Log10 TGI
  IC (TGI): > 100 µM
SK-MEL-5; [1]
  GI50: > 100 µM
SK-MEL-5; [2]
  IC (TGI): > 100 µM
SW-620; [1]
  GI50: > 100 µM
SW-620; [2]
  IC (TGI): > 100 µM
A498; [1]
  GI50: < 0.01 µM
A498; [2]
  IC (TGI): 0.0182 µM
A549/ATCC; [1]
  GI50: 45.7 µM
A549/ATCC; [2]
  IC (TGI): > 100 µM
MDA-MB-435; [1]
  GI50: > 100 µM
MDA-MB-435; [2]
  IC (TGI): > 100 µM
IGROV1; [1]
  GI50: 0.0123 µM
IGROV1; [2]
  IC (TGI): 0.0427 µM
HT29; [1]
  GI50: > 100 µM
HT29; [2]
  IC (TGI): > 100 µM
MOLT-4; [1]
  GI50: > 100 µM
MOLT-4; [2]
  IC (TGI): > 100 µM
M14; [1]
  GI50: > 100 µM
M14; [2]
  IC (TGI): > 100 µM
BT-549; [1]
  GI50: 42.7 µM
BT-549; [2]
  IC (TGI): > 100 µM
ACHN; [1]
  GI50: 12.9 µM
ACHN; [2]
  IC (TGI): 83.2 µM
U251; [1]
  GI50: 0.0251 µM
U251; [2]
  IC (TGI): 26.3 µM
786-0; [1]
  GI50: 12.3 µM
786-0; [2]
  IC (TGI): 67.6 µM
